According to patent publication US6420535B1, “6-O-carbamate ketolide derivatives” (Abbott Laboratories, priority 1999, dated 2002):
≈ marks a conversion by molar mass, not a printed value.

Key:
Assay type in all cases: cell-based
Candida albicans CCH 442 = assay: In vitro antibacterial MIC, agar dilution (BHI agar); conditions: 35-37° C., 20 to 24 hours, unit assumed
Procedure: (§1) Representative compounds of the present invention were assayed in vitro for antibacterial activity as follows: Twelve petri dishes containing successive aqueous dilutions of the test compound mixed with 10 mL of sterilized Brain Heart Infusion (BHI) agar (Difco 0418-01-5) were prepared. Each plate was inoculated with 1:100 (or 1:10 for slow-growing strains, such as Micrococcus and Streptococcus) dilutions of up to 32 different microorganisms, using a Steers replicator block. The inoculated plates were incubated at 35-37° C. for 20 to 24 hours. In addition, a control plate, using BHI agar containing no test compound, was prepared and incubated at the beginning and end of each test.
(§2) An additional plate containing a compound having known susceptibility patterns for the organisms being tested and belonging to the same antibiotic class as the test compound was also prepared and incubated as a further control, as well as to provide test-to-test comparability. Erythromycin A was used for this purpose.
(§3) After incubation, each plate was visually inspected. The minimum inhibitory concentration (MIC) was defined as the lowest concentration of drug yielding no growth, a slight haze, or sparsely isolated colonies on the innoculum spot as compared to the growth control. The results of this assay, which relate to the antibacterial activity of the compounds of the invention, are reported below in Table 1.

Escherichia coli JUHL = assay: as above; conditions: 35-37° C., 20 to 24 hours, unit assumed
Procedure: as §1, §2, §3

Escherichia coli SS = assay: as above; conditions: 35-37° C., 20 to 24 hours, unit assumed
Procedure: as §1, §2, §3

[1] = tested on: Micrococcus luteus ATCC 4698; assay: as above; conditions: 35-37° C., 20 to 24 hours, unit assumed
Procedure: as §1, §2, §3

[2] = tested on: Mycobacterium smegmatis ATCC 114; assay: as above; conditions: 35-37° C., 20 to 24 hours, unit assumed
Procedure: as §1, §2, §3

[3] = tested on: Nocardia asteroides ATCC997O; assay: as above; conditions: 35-37° C., 20 to 24 hours, unit assumed
Procedure: as §1, §2, §3

[4] = tested on: Staphylococcus aureus 1775; assay: as above; conditions: 35-37° C., 20 to 24 hours, unit assumed
Procedure: as §1, §2, §3

[5] = tested on: Staphylococcus aureus A-5278; assay: as above; conditions: 35-37° C., 20 to 24 hours, unit assumed
Procedure: as §1, §2, §3

[6] = tested on: Staphylococcus aureus A5177; assay: as above; conditions: 35-37° C., 20 to 24 hours, unit assumed
Procedure: as §1, §2, §3

[7] = tested on: Staphylococcus aureus ATCC 6538P; assay: as above; conditions: 35-37° C., 20 to 24 hours, unit assumed
Procedure: as §1, §2, §3

[8] = tested on: Staphylococcus aureus NCTC10649M; assay: as above; conditions: 35-37° C., 20 to 24 hours, unit assumed
Procedure: as §1, §2, §3

[9] = tested on: Staphylococcus epidermidis 3519; assay: as above; conditions: 35-37° C., 20 to 24 hours, unit assumed
Procedure: as §1, §2, §3

[10] = tested on: Streptococcus agalactiae CMX 508; assay: as above; conditions: 35-37° C., 20 to 24 hours, unit assumed
Procedure: as §1, §2, §3

[11] = tested on: Streptococcus bovis A-5169; assay: as above; conditions: 35-37° C., 20 to 24 hours, unit assumed
Procedure: as §1, §2, §3

[12] = tested on: Streptococcus pyogenes 930; assay: as above; conditions: 35-37° C., 20 to 24 hours, unit assumed
Procedure: as §1, §2, §3

[13] = tested on: Streptococcus pyogenes EES61; assay: as above; conditions: 35-37° C., 20 to 24 hours, unit assumed
Procedure: as §1, §2, §3

[14] = tested on: Streptococcus pyogenes PIU 2548; assay: as above; conditions: 35-37° C., 20 to 24 hours, unit assumed
Procedure: as §1, §2, §3

Escherichia coli DC-2 = assay: as above; conditions: 35-37° C., 20 to 24 hours, unit assumed
Procedure: as §1
(§4) An additional plate containing a compound having known susceptibility patterns for the organisms being tested and belonging to the same antibiotic class as the test compound was also prepared and incubated as a further control, as well as to provide test-to-test comparability.
(§5) After incubation, each plate was visually inspected. The minimum inhibitory concentration (MIC) was defined as the lowest concentration of drug yielding no growth, a slight haze, or sparsely isolated colonies on the innoculum spot as compared to the growth control.

[15] = tested on: Haemophilis influenzae DILL AMP R; assay: Separate in vitro antibacterial assay (H. Influenza / S. Pneumonia); conditions: protocol as for Table 1, unit assumed
Procedure: as §1, §2, §3
(§6) In a separate assay representative compounds of the invention were assayed in vitro for antibacterial activity against H. Influenza Dill AMP R strain and S. Pneumonia, according to the protocol described above. The results of this assay, which relate to the antibacterial activity of compounds of the invention against the H. Influenza Dill AMP R and S. Pneumonia organisms, are shown below in Table 2.

[16] = tested on: Streptococcus pneumonia 5649; assay: as above; conditions: protocol as for Table 1, unit assumed
Procedure: as §1, §2, §3, §6

[17] = tested on: Streptococcus pneumonia ATCC63O3; assay: as above; conditions: protocol as for Table 1, unit assumed
Procedure: as §1, §2, §3, §6

[18] = tested on: Streptococcus pneumonia GYR 1171; assay: as above; conditions: protocol as for Table 1, unit assumed
Procedure: as §1, §2, §3, §6

[19] = tested on: Streptococcus pneumonia 5979; assay: as above; conditions: protocol as for Table 1, unit assumed
Procedure: as §1, §4, §5

[20] = tested on: Micrococcus luteus ATCC 9341; assay: In vitro antibacterial MIC, agar dilution (BHI agar); conditions: 35-37° C., 20 to 24 hours, unit assumed
Procedure: as §1, §2, §3

[21] = tested on: Staphylococcus aureus CMX 553; assay: as above; conditions: 35-37° C., 20 to 24 hours, unit assumed
Procedure: as §1, §2, §3

[22] = tested on: Staphylococcus aureus CMX 642A; assay: as above; conditions: 35-37° C., 20 to 24 hours, unit assumed
Procedure: as §1, §2, §3

| SMILES | MIC (Candida albicans CCH 442) | MIC (Escherichia coli JUHL) | MIC (Escherichia coli SS) | MIC [1] | MIC [2] | MIC [3] | MIC [4] | MIC [5] | MIC [6] | MIC [7] | MIC [8] | MIC [9] | MIC [10] | MIC [11] | MIC [12] | MIC [13] | MIC [14] | MIC (Escherichia coli DC-2) | MIC (antibacterial activity, Table 2) [15] | MIC (antibacterial activity, Table 2) [16] | also measured |
| --- | --- | --- | --- | --- | --- | --- | --- | --- | --- | --- | --- | --- | --- | --- | --- | --- | --- | --- | --- | --- | --- |
| CCC1OC(=O)C(C)C(=O)C(C)C(OC2OC(C)CC(N(C)C)C2O)C(C)(OC(N)=O)CC(C)C(=NO)C(C)C2OC(=O)OC12C (centres unmarked) [Ex. 2, Compound of Formula (II-A), wherein A is —O—; X is N—OH; —M— is Absent; R^2 is Hydrogen, and R^p is Hydrogen] | > 100 µg/mL | > 100 µg/mL | 1.56 µg/mL | 1.56 µg/mL | 50 µg/mL | 6.2 µg/mL | > 100 µg/mL | > 100 µg/mL | 3.1 µg/mL | 1.56 µg/mL | 1.56 µg/mL | 1.56 µg/mL | 0.39 µg/mL | 0.2 µg/mL | > 100 µg/mL | 0.39 µg/mL | 3.1 µg/mL | > 100 µg/mL | 8 µg/mL | 8 µg/mL | MIC (antibacterial activity, Table 2) [17]: 0.25 µg/mL; MIC (antibacterial activity, Table 2) [18]: 0.25 µg/mL; MIC (antibacterial activity, Table 2) [19]: > 128 µg/mL |
| CCC1OC(=O)C(C)C(=O)C(C)C(OC2OC(C)CC(N(C)C)C2O)C(C)(OC(=O)NC(=O)c2ccccc2)CC(C)C(=NO)C(C)C2OC(=O)OC12C (centres unmarked) [Ex. 1, Compound of Formula (IV-A): wherein A is —O—; X is N—OH; —M— is Absent, R^2 is Phenyl; and R^p is Hydrogen] | > 100 µg/mL | 50 µg/mL | 0.39 µg/mL | 0.39 µg/mL | 50 µg/mL | 0.78 µg/mL | > 100 µg/mL | > 100 µg/mL | 0.39 µg/mL | 0.39 µg/mL | 0.39 µg/mL | 0.39 µg/mL | 0.02 µg/mL | 0.02 µg/mL | > 100 µg/mL | 0.02 µg/mL | 1.56 µg/mL | 100 µg/mL | 8 µg/mL | 2 µg/mL | MIC (antibacterial activity, Table 2) [17]: 0.03 µg/mL; MIC (antibacterial activity, Table 2) [18]: 0.03 µg/mL; MIC (antibacterial activity, Table 2) [19]: > 64 µg/mL |
| CC[C@H]1OC(=O)[C@H](C)[C@@H](O[C@H]2C[C@@](C)(OC)[C@@H](O)[C@H](C)O2)[C@H](C)[C@@H](O[C@@H]2O[C@H](C)C[C@H](N(C)C)[C@H]2O)[C@](C)(O)C[C@@H](C)C(=O)[C@H](C)[C@@H](O)[C@]1(C)O [Ery. A, Erythromycin A, reference compound] | > 100 µg/mL | > 100 µg/mL | 0.78 µg/mL (≈ 1.06 µM) | 0.2 µg/mL (≈ 0.273 µM) | 3.1 µg/mL (≈ 4.22 µM) | 0.1 µg/mL (≈ 0.136 µM) | > 100 µg/mL | > 100 µg/mL | 3.1 µg/mL (≈ 4.22 µM) | 0.2 µg/mL (≈ 0.273 µM) | 0.39 µg/mL (≈ 0.531 µM) | 0.39 µg/mL (≈ 0.531 µM) | 0.05 µg/mL (≈ 0.0681 µM) | 0.02 µg/mL (≈ 0.0273 µM) | > 100 µg/mL | 0.05 µg/mL (≈ 0.0681 µM) | 6.2 µg/mL (≈ 8.45 µM) | > 100 µg/mL | 4 µg/mL (≈ 5.45 µM) | 16 µg/mL (≈ 21.8 µM) | MIC [20]: 0.05 µg/mL (≈ 0.0681 µM); MIC [21]: 0.39 µg/mL (≈ 0.531 µM); MIC [22]: 0.39 µg/mL (≈ 0.531 µM); MIC (antibacterial activity, Table 2) [17]: 0.06 µg/mL (≈ 0.0818 µM); MIC (antibacterial activity, Table 2) [18]: 0.06 µg/mL (≈ 0.0818 µM) |
